Data published in patent publication US4672066A, “Derivatives of 4-acetyl-3-hydroxy-2-alkyl-phenoxycarboxylic acids” (Hoffmann-La Roche Inc., priority 1985, dated 1987).

What was measured:
[1] = system: leukotriene E4 (LTE4); assay: LTE4-Induced Guinea Pig Bronchoconstriction Test; type: in vivo; conditions: 10 mg/kg i.v.
Protocol: In this test system, the ability of a drug to inhibit the bronchoconstriction induced in guinea pigs by leukotriene E4 (LTE4) is measured. A maximally constrictory dose of LTE4 is injected into guinea pigs which have been pretreated with propranolol (0.1 mg/kg, i.v.) for 5 minutes prior to challenge. The bronchoconstriction (in cm H2 O) elicited in animals pretreated intravenously for 30 seconds (at 10 mg/kg) or orally for 2 hours (at 100 mg/kg) with the test drug prior to LTE4 challenge is compared to that elicited in the absence of the test compound to determine the in vivo activity of the drug.

[2] = molecular target: T1, PAF (Canis lupus familiaris, UniProt A0A8I3NSH0); assay: PAF Radioreceptor Binding Assay; conditions: Table I; dog platelets, 3H-PAF
T1 construct: followed by 2×10^7 dog platelets; from tissue; host or cells: washed platelets from citrate-treated dog blood
T1 sequence (A0A8I3NSH0 1-343): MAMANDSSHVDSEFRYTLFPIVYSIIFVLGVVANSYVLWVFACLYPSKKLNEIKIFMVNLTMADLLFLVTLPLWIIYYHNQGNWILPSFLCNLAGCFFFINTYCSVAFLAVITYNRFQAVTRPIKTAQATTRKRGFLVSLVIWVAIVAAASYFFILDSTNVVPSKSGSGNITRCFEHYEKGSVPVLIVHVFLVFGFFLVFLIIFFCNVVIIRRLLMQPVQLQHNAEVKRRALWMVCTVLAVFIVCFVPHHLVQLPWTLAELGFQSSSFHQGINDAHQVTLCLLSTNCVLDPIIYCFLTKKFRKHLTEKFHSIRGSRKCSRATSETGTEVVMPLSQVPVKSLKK
Protocol: Platelet rich plasma is prepared by centrifugation of citrate-treated dog blood. Acidification to pH 6.5 with 0.15 M citric acid and centrifugation for 10 minutes at 1000 xg yields a platelet pellet which is then washed by resuspension in EDTA-Phosphate Buffered Saline (PBS) and recentrifuged. The washed platelet preparation is adjusted to 2×10^7 platelets/50 μl in 0.1% BSA-PBS. […] After mixing, incubating for 10 minutes at room temperature, and centrifuging for 1 minute in a Beckman Microfuge B (8000 xg), the pellet is removed by clipping off the tip of the tube, the platelets are solubilized with 200 μl of 50% methanol, and counted in 10 ml of Aquasol. […] Results obtained with representative compounds of the present invention in this assay are summarized hereinafter in Tables I, II and III.

[3] = system: SRS-A; assay: Guinea Pig Ileum, In Vitro (SRS-A antagonism); conditions: Table I, read-out: SRS-A Antagonism IC50
Protocol: The guinea pig ileum bioassay system has been described by Orange and Austen, Adv. Immunol. 10: 104-144 ([…]). A 1.5 cm segment is removed from animals weighting 300-400 g. and suspended in an organ bath containing 10 ml. of Tyrodes solution with 10^-6 M atropine sulfate and 10^-6 M pyrilamine maleate. The bath is maintained at 37° C. and aerated with a mixture of 95% oxygen and 5% carbon dioxide. The SRS-A utilized in this screen is obtained by challenging chopped lung fragments from actively sensitized guinea pigs with egg albumin, in vitro. A dose-response curve to SRS-A challenge is established for the ileum. The dose of SRS-A which gives 50% of the maximal contraction (EC50) is then used for subsequent challenge. The drug concentration which inhibits, by 50%, the SRS-A induced constriction of the guinea pig ileum is determined.

[4] = system: PAF; assay: PAF-Induced Guinea Pig Bronchoconstriction Test; type: in vivo, guinea pig (Hartley); conditions: i.v.; compared with LTE
Protocol: Male guinea pigs (Hartley strain) weighing 300 to 500 g are anesthetized with urethane (2 g/kg) intraperitoneally and a polyethylene cannula is inserted into the jugular vein for drug administration. Tracheal pressure is recorded from a cannula inserted in the trachea and connected to a Statham pressure transducer. Propranolol (0.1 mg/kg) is administered intravenously five minutes before challenge with synthetic PAF, the animals's skeletal muscles are then paralyzed with succinylcholine (1.2 mg/kg i.v.), and the animal is respirated using a Harvard small animal respirator operating at 40 breaths/min and 2.5 cc stroke volume. Under these conditions PAF induces a dose-dependent increase in ventilatory pressure over a dose range of 0.5 to 5 pg/kg i.v. The bronchoconstrictive effect of PAF occurs at approximately a 10-fold lower dose than that obtained with LTE. For screening purposes animals are challenged with a single dose of PAF (10 pg/kg i.v.).
Test compounds are screened by either the intravenous route (1.0 mg/kg i.v., 1 min pretreatment) or oral route (100 mg/kg p.o., 2 hour pretreatment). The peak increase in ventilatory pressure (cm H2 O) is recorded for three control animals and five drug-treated animals and the percent inhibition determined.

[5] = system: PAF; assay: PAF-Induced Rat Skin Wheal Test; type: in vivo, Sprague-Dawley rats; conditions: compared with LTE
Protocol: This test evaluates the ability of compounds to inhibit PAF-induced increases in vascular permeability in the skin of Sprague-Dawley rats. PAF induces a dose-dependent skin wheal response in this system over a dose range of 0.0001 to 1 pg/0.05 ml injection. The profound vasoactive activity of PAF is emphasized by the fact that the maximum skin wheal response is considerably greater than that obtained with LTE and an EC50 response is elicited at a 10-fold lower dose. For drug screening purposes, 5 ng of PAF is injected intradermally into anesthetized rats which had been pretreated for 30 minutes with an antihistamine (pyrilamine maleate, 50 mg/kg, i.p.) and an antiserotonin compound (methylsergide maleate, 4 mg/kg, i.p.). Immediately thereafter, the test compound is injected intravenously into the tail vein of the animal. This is followed by an intravenous injection of Evan's blue dye (0.5% in saline). Thirty minutes later the animals are sacrificed and the increase in vascular permeability induced by the migration of dye into the injection point in the skin is determined. For this purpose, rats are sacrificed by cervical dislocation, the dorsal skin is removed, the long and short axis of each […] is measured with a metric vernier caliper and the average diameter is obtained.

Compound | inhibition of LTE4-induced bronchoconstriction [1] | IC50 [2] | IC50 [3] | bronchoconstrictive effect of PAF, dose lower than that with LTE [4] | EC50 response in skin wheal, dose lower than with LTE [5]
CCCc1c(OCCCCCC(=O)NCCCCc2cccnc2)ccc(C(C)=O)c1O.Cl [Example 4, 6-(4-Acetyl-3-hydroxy-2-propylphenoxy)-N-[4-(3-pyridinyl)butyl]hexanamide hydrochloride] | 95% | 0.7 µM | 6 µM |  | 
CCCc1c(OCCCCCC(=O)OCCCc2cccnc2)ccc(C(C)=O)c1O.Cl [Example 28, 6-(4-Acetyl-3-hydroxy-2-propylphenoxy)-hexanoic acid, 3-(3-pyridinyl)propyl ester hydrochloride] | 87% |  |  |  | 
CCCCCCCCCCCCCCCCOCC(COP(=O)([O-])OCC[N+](C)(C)C)OC(C)=O (stereo not drawn) [PAF, reference compound] |  |  |  | ~10 fold | 10 fold
